Literature values in US10336750B2, “Composition and methods for the treatment of CaMKK2-mediated disorders” (Duke University, priority 2015, dated 2019).

System: neovascular remodeling (NVR) in experimental laser-induced CNV
Conditions: aged (16 month-old) mice, systemic depletion of macrophages, compared to sham control

**Q.** For `O=P(O)(O)C(Cl)(Cl)P(=O)(O)O` [clodronate], which “NVR phenotype, lesion size and fibrosis (choroidal flatmounts by FITC-dextran)” value is on record?
**A.** abrogation of the NVR phenotype, resulting in smaller lesions with less fibrosis
